From US4320136A, “8-Aza-16,16-difluoroprostanoids” (E. I. Du Pont de Nemours and Company, priority 1980, dated 1982)

Columns and labels:
[1] = tested on: necrosis and inflammation of the stomach caused by ethanol; assay: protection of rat stomach from ethanol-caused necrosis and inflammation (cytoprotection, oral); assay type: in vivo, rat (fasted, male); conditions: for ED50 / inhibition in vivo at 2 mg/kg: Rattus norvegicus; for ED50 / Percent Protection 2 mg/kg, at 1 hr / inhibition in vivo at 2 mg/kg: oral; for ED50: 50% protection, at peak time; for Peak Time: interval between compound and ethanol at which greatest protection is observed; for Percent Protection 2 mg/kg, at 1 hr / inhibition in vivo at 2 mg/kg: 1 hr between compound and ethanol; for inhibition in vivo at 2 mg/kg: po, 1 h, read-out: Percent Protection 2 mg/kg, at 1 hr; for cytoprotective effect (in words): rat, in vivo
Experimental: Some differences in the cytoprotective properties of these optical isomers are indicated by data in Table I. Using a method similar to that of Robert [U.S. Pat. No. 4,097,603 (1978)], fasted, male rats were treated with 8-azaprostanoids orally and various times later they were treated orally with 1.0 ml of absolute ethanol. The rats were sacrificed after ethanol administration and the stomachs were removed, inspected, and rated. The ED50 values in Table I represent the doses of 8-aza-16,16-difluoroprostanoids that gave 50% protection from the necrosis and inflammation of the stomach caused by ethanol. Values for the natural prostaglandin E1 (PGE1) and for two known nonfluorinated 8-azaprostanoids are given for comparison.
*"1 hr" refers to the one hour interval between administration of compoun
and subsequent ethanol administration.
**"Peak Time" refers to that interval between administration of compound
and administration of ethanol at which greatest protection is observed.

[2] = tested on: histamine-induced bronchoconstriction; assay: aerosol histamine challenge test (histamine-induced bronchoconstriction); assay type: in vivo, guinea pig
Experimental: As has been mentioned, compounds of this invention also show activity as potential drugs for controlling bronchial asthma. Using an aerosol histamine challenge test in guinea pigs [a modification of the method of M. E. Rosenthale et al, Experientia, 26, 119 (1970)], the ability of 8-aza-16,16-difluoroprostanoids administered by i.p. injection to protect against histamine-induced bronchoconstriction was measured. Using injections of 0.5 mg/kg and evaluating the guinea pigs 60 minutes after the injections, compound 6 gave 40% protection, compound 6l (15 RS) gave 39% protection, and compound 6d(15 RS) gave 14% protection. An oral dose of compound 8 at 5 mg/kg gave 80% protection at 2 hours.

[3] = tested on: PGE1; assay: PGE1 antagonist test on isolated rat stomach strips
Text: These PGE1 antagonist tests were run on isolated rat stomach strips.

[4] = i.p. 0.5 mg/kg, 60 minutes after injection, 0.5 mg/kg

SMILES | ED50 [1] [mg/kg] | Peak Time [1] [min] | inhibition in vivo at 2 mg/kg [1] [%] | other results
CCCCC(F)(F)C(O)/C=C/C1CCC(=O)N1CCCCCCC(=O)O (racemic) [Compound 14, racemic 7-[2-Oxo-5(RS)-5-(4,4-difluoro-3(RS)-3-hydroxyl-1-n-oct-1(E)-enyl)-1-pyrrolidinyl]heptanoic Acid] | 0.22 | 60 |  | 
CCCCCCC(F)(F)C(O)C=CC1CCC(=O)N1CCCCCCC(=O)OC(C)(C)C (single isomer, unassigned) [6l (15RS), tert-Butyl 7-[2-Oxo-5(R or S)5(4,4-difluoro-3-hydroxy-1n-dec-1(E)-enyl)-1-pyrrolidinyl]heptanoate] |  |  |  | protection against histamine-induced bronchoconstriction [2, 4]: 39%; Percent Protection 2 mg/kg, at 1 hr [1]: 59%
CCCCCCC(F)(F)[C@H](O)/C=C/[C@H]1CCC(=O)N1CCCCCCC(=O)O [7l (15R), 7-[2-oxo-5(R)-5-(4,4-difluoro-3(R)-3-hydroxy-1n-dec-1(E)-enyl)-1-pyrrolidinyl]heptanoic acid] | 0.0007 | 15 |  | 
CCCCCCC(F)(F)C(O)/C=C/C1CCC(=O)N1CCCCCCC(=O)OC (racemic) [Compound 8, racemic Methyl 7-[2-Oxo-5(RS)-5-(4,4-difluoro-3(RS)-3-hydroxy-1-n-dec-1-(E)-enyl)-1-pyrrolidinyl]heptanoate] | 0.005 | 15 | 91 | protection against histamine-induced bronchoconstriction ([2]; oral 5 mg/kg, at 2 hours): 80%
CCCCCCC(F)(F)[C@@H](O)/C=C/[C@H]1CCC(=O)N1CCCCCCC(=O)O (single isomer, unassigned) [7l (15S), 7-[2-Oxo-5(R or S)-5-(4,4-difluoro-3(R or S)-3-hydroxy-1n-dec-1(E)-enyl)-1-pyrrolidinyl]heptanoic Acid] | 0.01 |  |  | 
CCCCCCC(F)(F)[C@H](O)/C=C/[C@H]1CCC(=O)N1CCCCCCC(=O)OC(C)(C)C (single isomer, unassigned) [6l (15R), tert-Butyl 7-[2-Oxo-5(R or S)-5-(4,4-difluoro-3(R or S)-3hydroxy-1-n-dec-1(E)-enyl)-1-pyrrolidinyl]heptanoate] |  |  | 59 | 
CCCCC(F)(F)C(O)/C=C/C1CCC(=O)N1CCCCCCC(=O)OC (stereo not shown) [Compound 15] | 0.025 | 15 | 88 | 
CCCCC[C@H](O)/C=C/[C@H]1[C@H](O)CC(=O)[C@@H]1CCCCCCC(=O)O [PGE1, prostaglandin E1, reference compound] | 0.011 | 5 |  | 
CCCCCC(O)C=CC1CCC(=O)N1CCCCCCC(=O)OC (stereo not shown) [methyl 7-[2-oxo-5-(3-hydroxy-1-oct-1-enyl)-1-pyrrolidinyl]heptanoate, reference compound] | 1.8 | 60 | 60 | 
CCCCCCC(F)(F)C(O)C=CC1CCC(=O)N1CCCCCCC(=O)OC(C)(C)C (single isomer, unassigned) [6d (15RS), tert-Butyl 7-[2-Oxo-5(R or S)5(4,4-difluoro-3-hydroxy-1n-dec-1(E)-enyl)-1-pyrrolidinyl]heptanoate] |  |  |  | protection against histamine-induced bronchoconstriction [2, 4]: 14%; Percent Protection 2 mg/kg, at 1 hr [1]: -5%; cytoprotective effect (in words) [1]: no (or a negative) cytoprotective effect; IC50 against PGE1 [3]: 3 to 5 µg/mL
CCCCCCC(F)(F)[C@@H](O)/C=C/[C@H]1CCC(=O)N1CCCCCCC(=O)OC(C)(C)C (single isomer, unassigned) [6l (15S), tert-Butyl 7-[2-Oxo-5(R or S)-5-(4,4-difluoro-3(R or S)-3hydroxy-1-n-dec-1(E)-enyl)-1-pyrrolidinyl]heptanoate] |  |  | 9 | 
CC(C)(C)OC(=O)CCCCCCN1C(=O)CCC1/C=C/C(O)C(F)(F)c1ccccc1 (racemic) [Compound 21, racemic tert-Butyl 7-[2-Oxo-5(RS)-5-(4,4-difluoro-3(RS)-hydroxy-4-phenyl-1n-but-1(E)-enyl)-1-pyrrolidinyl]heptanoate] |  |  | 68 | 
O=C(O)CCCCCCN1C(=O)CCC1/C=C/C(O)C(F)(F)c1ccccc1 (racemic) [Compound 22] |  |  | 82 | 
CCCCCC(O)C=CC1CCC(=O)N1CCCCCCC(=O)O (stereo not shown) [7-[2-oxo-5-(3-hydroxy-1-oct-1-enyl)-1-pyrrolidinyl]heptanoic acids, reference compound] | 3 | 60 | 40 | 
CCCCCCC(F)(F)C(O)/C=C/C1CCC(=O)N1CCCCCCC(=O)OC(C)(C)C (racemic) [Compound 6, racemic tert-Butyl 7-[2-Oxo-5(RS)-5-(4,4-difluoro-3(RS)-3-hydroxy-1n-dec-1(E)-enyl)-1-pyrrolidinyl]-heptanoate] |  |  | 32 | protection against histamine-induced bronchoconstriction ([2]; i.p. 0.5 mg/kg, 60 minutes after injection): 40%; cytoprotective effect (in words) [1]: some cytoprotective activity; PGE1 antagonism (in words) [3]: weaker PGE1 antagonist
CCCCCCC(F)(F)C(O)/C=C/C1CCC(=O)N1CCCCCCC(=O)O (racemic) [Compound 7, racemic 7-[2-Oxo-5(RS)-(4,4-difluoro-3(RS)-hydroxy-1-n-dec-1(E)-enyl)-1-pyrrolidinyl]heptanoic Acid] | 0.0035 | 15 | 91 | 
CCCCC(F)(F)C(O)/C=C/C1CCC(=O)N1CCCCCCC(=O)OC(C)(C)C (racemic) [Compound 13, racemic t-Butyl 7-[2-Oxo-5(RS)-5-(4,4-difluoro-3(RS)-3-hydroxy-1-n-oct-1(E)-enyl)-1-pyrrolidinyl]heptanoate] | 0.8 | 15 | 66 | 
